Results: paper PMC9746817, “Activated cholesterol metabolism is integral for innate macrophage responses by amplifying Myd88 signaling” (JCI Insight, 2022)

Legend:
Myd88 CRAC domain = target: T1, Myd88 CRAC domain (Mus musculus, UniProt P22366); experiment: NBD-cholesterol fluorescence binding assay; details: labelled compound; paper words the KD as that of cholesterol; NBD position (22- or 25-) not told
T1 construct: CRAC-A Tyr187, CRAC-B Tyr227

3H-cholesterol = 3H-cholesterol binding to recombinant GST-tagged protein; GST-Myd88 recovered and radioactivity measured; details: 3H-cholesterol 10 μM; n = 3; mean ± SD; parent: est. 3900; read off a plot

T1 sequence (P22366 whole entry, the tested form may be a part): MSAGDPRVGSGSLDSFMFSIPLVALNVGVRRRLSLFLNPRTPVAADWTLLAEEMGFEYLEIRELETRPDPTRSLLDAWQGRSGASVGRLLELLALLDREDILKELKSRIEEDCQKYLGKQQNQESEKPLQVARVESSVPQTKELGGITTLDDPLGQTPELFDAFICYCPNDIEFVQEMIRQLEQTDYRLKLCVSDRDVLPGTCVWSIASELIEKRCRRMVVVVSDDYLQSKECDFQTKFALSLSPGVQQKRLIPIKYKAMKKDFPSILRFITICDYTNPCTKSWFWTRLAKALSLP

response (3H-cholesterol)	Compound	Kd (Myd88 CRAC domain)
	C[C@H](CNc1ccc([N+](=O)[O-])c2nonc12)[C@H]1CC[C@H]2[C@@H]3CC=C4C[C@@H](O)CC[C@]4(C)[C@H]3CC[C@]12C [NBD-cholesterol]	14.1 µM
1900 CPM	GST-tagged mouse Myd88 (from UniProt P22366) Y227F	
